Test results: ChEMBL document CHEMBL1201862, “PubChem BioAssay data set” (2004)
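Each compound was tested at five concentrations against cells in 96-well plates for 48 hours. GI50 = concentration required for 50% inhibition of growth.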 Activity calls are given as the source filed them. No stated cut-off is given here; in the data, active = GI50 up to about 1.1 µM and inactive = higher.

Experiments:
Experiment in all cases: growth of human tumour cells (NCI), 48 h
MDA-MB-435 = test system: MDA-MB-435
SK-OV-3 = test system: SK-OV-3
IGROV-1 = test system: IGROV-1
COLO 205 = test system: COLO 205
OVCAR-8 = test system: OVCAR-8
MDA-MB-231 = test system: MDA-MB-231
NCI-H226 = test system: NCI-H226
CCRF-CEM = test system: CCRF-CEM
OVCAR-3 = test system: OVCAR-3
T47D = test system: T47D
Hs-578T = test system: Hs-578T
SNB-75 = test system: SNB-75
DU-145 = test system: DU-145
OVCAR-5 = test system: OVCAR-5
RXF 393 = test system: RXF 393
KM12 = test system: KM12
LOX IMVI = test system: LOX IMVI
Malme-3M = test system: Malme-3M
TK-10 = test system: TK-10
HL-60 = test system: HL-60

SMILES | GI50 (MDA-MB-435) | GI50 (SK-OV-3) | GI50 (IGROV-1) | GI50 (COLO 205) | GI50 (OVCAR-8) | GI50 (MDA-MB-231) | GI50 (NCI-H226) | GI50 (CCRF-CEM) | GI50 (OVCAR-3) | GI50 (T47D) | GI50 (Hs-578T) | GI50 (SNB-75) | GI50 (DU-145) | GI50 (OVCAR-5) | GI50 (RXF 393) | GI50 (KM12) | GI50 (LOX IMVI) | GI50 (Malme-3M) | GI50 (TK-10) | GI50 (HL-60)
O=C1C=C(c2ccccc2)OC1C1Sc2ccccc2NC1=O (stereo not given) | 5.11 µM (inactive) | 8.09 µM (inactive) | 11.4 µM (inactive) | 7.73 µM (inactive) | 9.31 µM (inactive) | 10.9 µM (inactive) | 14.5 µM (inactive) | 6.43 µM (inactive) | 3.97 µM (inactive) | 10.4 µM (inactive) | 6.11 µM (inactive) | 5.11 µM (inactive) | 12.7 µM (inactive) | 13.8 µM (inactive) | 14 µM (inactive) | 7.76 µM (inactive) | 13.6 µM (inactive) | 24.3 µM (inactive) | 9.23 µM (inactive) | 3.15 µM (inactive)
C/C(=N\NC(=S)N1CCCCCC1)c1cccc2cccnc12 | 1.71 µM (inactive) | 3.77 µM (inactive) | 1.86 µM (inactive) | 0.459 µM (active) | 1.38 µM (inactive) | 2.12 µM (inactive) | 0.589 µM (active) | < 0.01 µM (active) | 0.0203 µM (active) | 0.966 µM (active) | 19.7 µM (inactive) | 23 µM (inactive) | 2.95 µM (inactive) | > 19.9 µM (inactive) | > 26.4 µM (inactive) | 1.42 µM (inactive) | 0.767 µM (active) | 3.17 µM (inactive) | 2.48 µM (inactive) | 1.25 µM (inactive)
